Measurements taken from ChEMBL document CHEMBL1201862, “PubChem BioAssay data set” (2004).
Activity calls are given as the source filed them. For most assays here, no stated cut-off is given here; in the data, actives have a measured EC50 and inactives only a lower limit.

Experiments:
[1] = test system: Streptococcus sp. 'group A'; assay: Streptococcus pyogenes SK(-)GAS viability under kanamycin – luminescence, BacTiterGlo, confirmation, counter-screen for streptokinase expression inhibitor project, dose response (AID 1900); assay type: functional, organism-based
BJ [2] = assay: BJ-TERT-LT-ST fibroblast viability loss – cell-based, RAS-independent, luminescence, dose response (AID 1935); assay type: functional; settings: Homo sapiens;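 further: BJ fibroblasts immortalized with TERT plus LT and ST oncogenes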
[3] = NIH3T3 cell viability loss – ATP luminescence, mouse fibroblasts, counter-screen, dose response (AID 2010); assay type: functional, cell-based;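 further: cells exposed to compound for about 90 hours before reading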
[4] = luciferase reporter signal suppression in cells – H4 neuroglioma cells, luminescence, dose response (AID 1990); assay type: functional, cell-based
[5] = Luminescence Cell-Based Dose Response HTS to Identify Inhibitors of 5'UTR Stem-Loop Driven Prion Protein mRNA Translation in H4 Neuroglioblastoma Cells. [Related pubchem assays: 1827 (Project Summary), 1813 (Primary HTS)]; assay type: functional
BJ [6] = assay: BJ-TERT fibroblast viability loss – cell-based, RAS-independent, luminescence, dose response (AID 1933); assay type: functional; settings: Homo sapiens
BJ [7] = assay: cells; assay type: functional, cell-based; settings: Homo sapiens
[8] = Trypanosoma cruzi growth suppression in host cells – NIH3T3 host cells, beta-gal luminescence, confirmation (AID 2044); assay type: functional, cell-based;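 further: intracellular parasites grown in NIH/3T3 mouse fibroblasts as host cells; luminescent beta-galactosidase reporter signal from transgenic T. cruzi replicating inside host cells; inhibitors lower the luminescence signal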
Streptococcus = assay: GAS UMAA2166 growth inhibition – luminescence, BacTiterGlo, counter-screen for streptokinase expression inhibitor project, dose response (AID 1915); assay type: functional, organism-based;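 further: potency for reduction of bacterial viability or growth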
[9] = Luminescence-based dose response cell-based high throughput screening assay for cytotoxic compounds using the IEC-6 intestinal epithelial cell line. [Related pubchem assays: 1858 (Summary AID.), 1825 (Counterscreen.), 1907 (Confirmation screen.)]; assay type: functional
[10] = DRD fibroblast viability loss – cell-based, non-viral oncogenic, luminescence, dose response (AID 1934); assay type: functional; settings: Homo sapiens
Protein RecA = molecular target: T1, Protein RecA (Mycobacterium tuberculosis, UniProt P9WHJ3); assay: Fluorescence Cell-Free Homogeneous Dose Retest to Identify Inhibitors of RecA-Intein Splicing Activity. [Related pubchem assays (depositor defined):AID2097, AID2223, AID489010, AID492950]; assay type: functional
T1 sequence (P9WHJ3 whole entry): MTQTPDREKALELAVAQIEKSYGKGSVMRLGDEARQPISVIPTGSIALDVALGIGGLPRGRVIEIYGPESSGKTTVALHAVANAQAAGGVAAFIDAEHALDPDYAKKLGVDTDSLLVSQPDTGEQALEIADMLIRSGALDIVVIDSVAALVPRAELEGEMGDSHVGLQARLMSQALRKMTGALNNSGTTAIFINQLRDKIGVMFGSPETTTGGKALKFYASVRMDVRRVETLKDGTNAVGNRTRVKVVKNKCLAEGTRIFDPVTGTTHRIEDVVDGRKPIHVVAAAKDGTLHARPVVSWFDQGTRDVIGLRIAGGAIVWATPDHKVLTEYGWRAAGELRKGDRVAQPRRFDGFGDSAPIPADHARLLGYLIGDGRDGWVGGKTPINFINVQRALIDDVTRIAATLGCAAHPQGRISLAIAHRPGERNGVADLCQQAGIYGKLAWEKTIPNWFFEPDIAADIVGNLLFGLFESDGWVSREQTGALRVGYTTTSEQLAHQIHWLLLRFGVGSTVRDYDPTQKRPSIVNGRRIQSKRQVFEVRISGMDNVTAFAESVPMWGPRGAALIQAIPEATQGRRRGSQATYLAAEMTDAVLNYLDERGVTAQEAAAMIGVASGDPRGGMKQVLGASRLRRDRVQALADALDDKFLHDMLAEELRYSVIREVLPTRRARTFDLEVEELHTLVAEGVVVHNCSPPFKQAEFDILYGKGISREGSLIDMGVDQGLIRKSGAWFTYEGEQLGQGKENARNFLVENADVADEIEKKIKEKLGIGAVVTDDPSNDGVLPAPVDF

Aspartyl aminopeptidase = molecular target: T2, Aspartyl aminopeptidase (Plasmodium falciparum 3D7, UniProt Q8I2J3); assay: Counterscreen for inhibitors of M1 and M17 aminopeptidases: QFRET-based biochemical high throughput dose response assay for inhibitors of the Plasmodium falciparum M18 Aspartyl Aminopeptidase (PFM18AAP). [Related PubChem assays: 1619 (Screening assay (M17LAP inhibitors).), 1445 (Screening assay (M1AAP inhibitors).)]
T2 sequence (Q8I2J3 whole entry): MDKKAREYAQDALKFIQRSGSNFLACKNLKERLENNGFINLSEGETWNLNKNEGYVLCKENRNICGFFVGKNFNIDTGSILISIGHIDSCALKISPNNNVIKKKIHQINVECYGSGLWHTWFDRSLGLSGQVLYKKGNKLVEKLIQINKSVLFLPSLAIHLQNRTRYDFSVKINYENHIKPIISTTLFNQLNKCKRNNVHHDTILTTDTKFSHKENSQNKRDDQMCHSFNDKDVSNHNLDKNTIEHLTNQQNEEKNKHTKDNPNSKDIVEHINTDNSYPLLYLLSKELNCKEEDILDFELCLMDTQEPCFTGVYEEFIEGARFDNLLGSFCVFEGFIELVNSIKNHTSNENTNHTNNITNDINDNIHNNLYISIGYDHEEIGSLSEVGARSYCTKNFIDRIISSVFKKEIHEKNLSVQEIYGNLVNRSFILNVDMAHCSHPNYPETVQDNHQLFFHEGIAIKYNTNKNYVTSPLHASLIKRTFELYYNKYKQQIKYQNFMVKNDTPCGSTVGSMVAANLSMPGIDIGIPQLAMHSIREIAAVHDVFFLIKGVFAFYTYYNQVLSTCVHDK

Procathepsin L = Procathepsin L (Homo sapiens, UniProt P07711); assay: CTSL1 protease inhibition – biochemical, QFRET, 1536-well, counter-screen for M1/M17 aminopeptidase inhibitor project, dose response (AID 2214)
Sequence of Procathepsin L (P07711 whole entry): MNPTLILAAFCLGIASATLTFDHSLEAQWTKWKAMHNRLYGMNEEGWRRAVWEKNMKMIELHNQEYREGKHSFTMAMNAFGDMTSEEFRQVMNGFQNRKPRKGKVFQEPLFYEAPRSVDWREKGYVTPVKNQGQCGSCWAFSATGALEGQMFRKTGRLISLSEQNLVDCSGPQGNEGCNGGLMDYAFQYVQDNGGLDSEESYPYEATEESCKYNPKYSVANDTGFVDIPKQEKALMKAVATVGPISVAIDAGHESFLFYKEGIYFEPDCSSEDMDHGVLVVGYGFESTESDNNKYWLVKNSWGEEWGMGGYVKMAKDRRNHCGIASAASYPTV

Leucine aminopeptidase = molecular target: T3, Leucine aminopeptidase (Plasmodium falciparum 3D7, UniProt Q8IL11); assay: P. falciparum M17LAP inhibitors, primary screen, biochemical, fluorogenic H-Leu-NHMec substrate, 1536-well (AID 1619); assay type: functional
T3 sequence (Q8IL11 whole entry): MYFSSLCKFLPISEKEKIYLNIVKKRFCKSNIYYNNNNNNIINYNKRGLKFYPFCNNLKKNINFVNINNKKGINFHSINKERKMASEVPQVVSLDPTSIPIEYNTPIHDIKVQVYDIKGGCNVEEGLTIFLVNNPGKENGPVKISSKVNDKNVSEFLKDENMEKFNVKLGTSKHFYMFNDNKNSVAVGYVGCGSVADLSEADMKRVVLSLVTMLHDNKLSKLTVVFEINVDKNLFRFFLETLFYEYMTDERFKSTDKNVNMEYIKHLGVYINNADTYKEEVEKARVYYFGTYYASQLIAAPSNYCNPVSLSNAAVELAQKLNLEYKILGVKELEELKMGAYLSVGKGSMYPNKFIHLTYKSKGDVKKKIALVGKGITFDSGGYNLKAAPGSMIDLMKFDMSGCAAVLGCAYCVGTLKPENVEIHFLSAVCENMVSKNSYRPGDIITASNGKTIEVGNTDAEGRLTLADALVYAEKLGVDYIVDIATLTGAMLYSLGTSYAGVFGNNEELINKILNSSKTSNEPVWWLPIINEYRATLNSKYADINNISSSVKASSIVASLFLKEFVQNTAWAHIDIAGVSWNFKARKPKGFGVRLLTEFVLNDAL

[11] = molecular target: Dual specificity tyrosine-phosphorylation-regulated kinase 1A (Rattus norvegicus, UniProt Q63470); assay type: biochemical, Homo sapiens
[12] = molecular target: T4, Replicative DNA helicase DnaB (Mycobacterium tuberculosis, UniProt P9WMR3); assay: DnaB intein splicing inhibitors, dose response, biochemical, cell-free fluorescence (AID 449749); assay type: functional
T4 sequence (P9WMR3 whole entry): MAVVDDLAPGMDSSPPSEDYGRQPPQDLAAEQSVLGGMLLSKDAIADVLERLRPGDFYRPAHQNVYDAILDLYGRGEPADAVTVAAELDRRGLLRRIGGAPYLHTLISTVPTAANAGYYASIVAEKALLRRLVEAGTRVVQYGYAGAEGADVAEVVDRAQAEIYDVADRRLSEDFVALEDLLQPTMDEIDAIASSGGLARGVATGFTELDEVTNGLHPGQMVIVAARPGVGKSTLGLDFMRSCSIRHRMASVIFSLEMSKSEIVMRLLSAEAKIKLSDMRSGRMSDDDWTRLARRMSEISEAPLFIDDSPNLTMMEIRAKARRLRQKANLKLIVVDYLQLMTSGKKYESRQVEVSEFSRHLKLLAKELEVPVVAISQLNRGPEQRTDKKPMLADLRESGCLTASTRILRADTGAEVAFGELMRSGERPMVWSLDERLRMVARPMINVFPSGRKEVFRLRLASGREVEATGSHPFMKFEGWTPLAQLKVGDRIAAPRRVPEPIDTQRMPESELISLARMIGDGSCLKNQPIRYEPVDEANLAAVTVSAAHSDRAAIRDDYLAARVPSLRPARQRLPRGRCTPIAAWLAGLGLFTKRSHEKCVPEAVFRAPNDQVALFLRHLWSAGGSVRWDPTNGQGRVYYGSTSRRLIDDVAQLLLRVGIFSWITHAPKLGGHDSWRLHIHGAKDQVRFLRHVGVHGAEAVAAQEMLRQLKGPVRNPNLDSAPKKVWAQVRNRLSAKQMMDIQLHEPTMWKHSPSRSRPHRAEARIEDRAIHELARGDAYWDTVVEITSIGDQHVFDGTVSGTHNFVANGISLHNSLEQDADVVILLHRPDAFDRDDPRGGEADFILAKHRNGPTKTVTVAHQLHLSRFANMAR

[13] = mitochondrial function rescue without frataxin homolog – Friedreich's ataxia, plus single-dose screen, dose response (AID 1465); assay type: functional;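 further: yeast depleted of Yfh1p frataxin homolog grown on glycerol needing respiration; WST-1 tetrazolium dye reduction as measure of cellular dehydrogenase metabolic activity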
[14] = molecular target: Sphingosine 1-phosphate receptor 2 (Homo sapiens, UniProt O95136); assay: Dose Response Cell Based Assay for Agonists of the S1P2 Receptor of Purchased Analogues. [Related pubchem assays: 729, 843, 854, 736 ]; assay type: functional
Sequence of Sphingosine 1-phosphate receptor 2 (O95136 whole entry): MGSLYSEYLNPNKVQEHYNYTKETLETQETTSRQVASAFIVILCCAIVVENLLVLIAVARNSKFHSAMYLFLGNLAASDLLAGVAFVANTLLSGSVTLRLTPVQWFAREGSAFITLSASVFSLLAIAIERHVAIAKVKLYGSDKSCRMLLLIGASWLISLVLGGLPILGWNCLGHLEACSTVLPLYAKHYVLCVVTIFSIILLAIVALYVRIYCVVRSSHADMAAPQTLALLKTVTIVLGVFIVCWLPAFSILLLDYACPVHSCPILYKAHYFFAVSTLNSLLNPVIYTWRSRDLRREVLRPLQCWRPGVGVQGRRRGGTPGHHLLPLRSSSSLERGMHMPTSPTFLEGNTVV

Structure (SMILES): COc1ccccc1-c1nnc(Nc2nc3c(OC)cccc3s2)o1
- EC50 [1]: 1.67 µM (active)
- EC50 (BJ [2]): 0.457 µM (inconclusive)
- EC50 [3]: 0.576 µM (active)
- EC50 [4]: 8.66 µM (inconclusive)
- EC50 [5]: 5.65 µM (active)
- EC50 (BJ [6]): 0.904 µM (active)
- EC50 (BJ [7]): 0.635 µM (active)
- EC50 [8]: 0.559 µM (active)
- EC50 (Streptococcus): > 150 µM (inconclusive)
- IC50 [9]: 0.886 µM (active)
- EC50 [10]: 28.9 µM (inconclusive)

Structure (SMILES): COc1ccc(-c2cc(=O)[nH][nH]2)cc1
- EC50 (Protein RecA): 0.444 µM (active)
- IC50 (Aspartyl aminopeptidase): > 73.5 µM (not active)
- IC50 (Procathepsin L): > 59.6 µM (not active)
- IC50 (Leucine aminopeptidase): 2.97 µM (active)
- AC50 [11]: 5.54 µM (active)
- AC50 [12]: 0.882 µM (active)

Structure (SMILES): COc1cccc(N/N=C2\C(=O)Nn3c2nc2c(c3=O)CCC2)c1
- EC50 [13]: > 100 µM (active)

Structure (SMILES): Cc1cc(C(=O)COC(=O)C2CSC3(C)CCC(=O)N23)c(C)n1Cc1ccccc1 (centres undefined)
- EC50 [14]: > 30 µM (not active)
